In test [1] the test system is ITK phosphorylation of its substrate, PLCγ1, at Y783. The experiment in a line: ITK target modulation assay (PLCγ1 Y783 phosphorylation, anti-CD3 stimulated Jurkat T cells). The format is cell-based. Particulars: Homo sapiens, Jurkat, anti-CD3 Dynabeads stimulation, read-out: PLC-γ Inh. IC50. The protocol: Target modulation was based upon the ability of a compound to inhibit ITK phosphorylation of its substrate, PLCγ1, at Y783. Human Jurkat T cells (ATCC TIB-152) were plated in V-bottom 96 well plates at 400,000 cells/well in 80 μL medium (RPMI1640 with 10% heat inactivated serum and 55 μM 2-mercaptoethanol and supplemented with glutamine/penicillin/streptomycin). Compounds were added as 10 μL of 10× working stock solutions in medium with 1% DMSO (or medium with 1% DMSO for controls) and placed in a 37° C. incubator with gentle shaking for 1 hour. Stimulation was carried out using anti-CD3 Dynabeads (Invitrogen catalog #1151D) to activate the T cell receptor and mimic antigen presenting cells. Beads were washed and resuspended in medium at 1.84×10^8 beads/ml. Beads were added rapidly to all compound containing and stimulation only wells at 10 μL/well (bead:cell=2:1) with gentle mixing of the bead source between each addition. Wells designated ‘unstimulated’ received 10 μL of media only. The plate was immediately sealed with a plate seal and cells pelleted at 400× g for 4 minutes. Media was removed using a multichannel aspirator, 25 μL of cold hypotonic lysis buffer (VWR M334-100 ml) plus 1×HALT Protease Inhibitor Cocktail (ThermoFisher #78437), 1× Phosphatase Inhibitor Cocktail 2 (Sigma Aldrich #P5726), 1× Phosphatase Inhibitor Cocktail 3 (Sigma Aldrich #P0044) and 2 mM PMSF was added per well. Cells were incubated on ice for 30 minutes to swell the cells then lysed by pipetting 20 times using a multichannel pipet. The plates were then resealed and centrifuged for 5 minutes at 400× g to pellet the cellular debris. Two μL of the soluble component of each sample was spotted onto nitrocellulose and allowed to dry for 30 minutes. Nitrocellulose was wet in 1× Tris Buffer Saline (20 mM Tris pH7.5, 150 mM NaCl) then blocked in LiCOR Odyssey Blocking Buffer (TBS) (LiCOR #927-50000) for 1 hour at room temperature with rocking. Following blocking, nitrocellulose was incubated in LiCOR Odyssey Blocking Buffer (TBS) plus 0.2% Tween20 plus anti-phospho-PLCγ1 (Y783) antibody (CST #2821S) at 1:1000 and anti-PLCγ1 (Abcam #41433) at 1:5000 with gentle rocking overnight at 4° C. Nitrocellulose was then washed four times for 5 minutes each with TBS plus 0.1% Tween20 (TBST) then incubated in LiCOR Odyssey Blocking Buffer (TBS) plus 0.2% Tween20 plus secondary antibodies IRDye 800CW (LiCOR 926-32211) and IRDye 680RD (LiCOR 926-68070) both at 1:15,000 with gentle rocking at room temperature in the dark for 1 hour. Nitrocellulose was then washed four times for 5 minutes each with TBST at room temperature in the dark. A final rinse with TBS was done prior to imaging and quantifying using the LiCOR Odyssey Imager and software respectively.

In test [2] the target is ITK (Homo sapiens (Human), UniProt Q08881). Briefly: ITK inhibitor binding potency (LanthaScreen competitive binding assay). Particulars: read-out: ITK Inh. IC50. From the text: The ability of candidate compounds to interact with ITK is quantitated by a competitive binding assay using the LanthaScreen technology developed by Life Technologies. This assay is based on the binding of a proprietary, Alexa Fluor® 647-labeled, ATP-competitive kinase inhibitor (kinase tracer-236) to the ITK expression construct in the presence of a Europium-conjugated antibody, resulting in a FRET (fluorescence resonance energy transfer) signal. Displacement of the kinase tracer by compound results in a lower emission ratio upon excitation of the Europium chelate. Candidate compounds are designed as potential irreversible inhibitors of ITK, capable of ligating to an active site cysteine residue resulting in time dependent covalent binding. The time dependent nature of irreversible inhibition is investigated by performing the binding assay with and without a pre-incubation of compound and ITK. […] The inhibitory potency of candidate compounds is measured in 20 mM HEPES pH 7.5, 10 mM MgCl2, 0.01% BSA, 0.0005% Tween-20, and 2% DMSO in the presence of 10 nM ITK, 2 nM Eu-anti-GST antibody, and 50 nM kinase tracer-236 using a 384-well plate format. Background signal is defined in the absence of ITK and uninhibited signal is defined in the presence of vehicle (2% DMSO) alone. Compounds were evaluated in an 11 point dose-response ranging from 20 uM to 0.34 nM. The binding assays are performed under two preincubation conditions to evaluate time dependence of inhibition. For the pre-incubation assay, ITK and Eu-anti-GST antibody are pre-incubated with compound or vehicle for two hours prior to the addition of kinase tracer. The non-preincubated assay is run under conditions where ITK and Eu-anti-GST antibody are added to a mixture of compound and kinase tracer. IC50 values of compounds are determined using a 4 parameter logistical fit of emission ratio as a function of the concentration of compound.

The subject of test [3] is JAK1/3 phosphorylation of its substrate, STAT5, at Y694. Briefly: JAK1/3 target modulation assay (IL-2 stimulated STAT5 Y694 phosphorylation in PBMC). Particulars: Primary human peripheral blood mononuclear cells, IL-2 25 ng/mL, read-out: IL2-STAT5 Inh. IC50. Format: cell-based. The protocol: Target modulation was based upon the ability of a compound to inhibit JAK1/3 phosphorylation of its substrate, STAT5, at Y694. Primary human peripheral blood mononuclear cells were plated in V-bottom 96 well plates at 200,000 cells/well in 120 μL medium (RPMI-1640 with 10% fetal bovine serum, 10 mM HEPES buffer, 12.2 mM 2-mercaptoethanol, and supplemented with glutamine/penicillin/streptomycin). Compounds were added as 15 μL of 10× working stock solutions in medium with 1% DMSO (or medium with 1% DMSO for controls) and placed in a 37° C. incubator with gentle shaking for 1 hour. Stimulation was carried out using recombinant human IL-2 (R&D Systems #202-IL-050) to activate JAK1/3. IL-2 stock solution was diluted in media to 250 ng/mL and was added rapidly to all compound containing and stimulation only wells at 15 μL/well (final concentration=25 ng/mL). Wells designated ‘unstimulated’ received 15 μL of media only. The plate was placed back in a 37° C. incubator with gentle shaking for 5 minutes. After stimulation, the plates were immediately sealed with a plate seal, and cells pelleted at 400× g for 5 minutes. Media was removed using a multichannel aspirator, and 75 μL of cold Tris lysis buffer (MSD #R60TX-3) plus 1× Protease Inhibitor Solution (MSD #R70AA-1), 1× Phosphatase Inhibitor I (MSD #R70AA-1), and 1× Phosphatase Inhibitor II (MSD #R70AA-1) was added per well. Cells were incubated at 4° C. with gentle shaking for at least 30 minutes to allow for complete lysis. The plates were removed from 4° C., and 25 μL of lysate from each well was added to the corresponding well on the MSD plate. Samples were analyzed by either an MSD multiplex kit for Phospho-STAT5a,b/Total-STAT5a,b (MSD #K15163D) or an MSD single-plex kit for Phospho-STAT5a,b (MSD #K150IGD). The protocols for the respective kits were followed, and the plates were read on the MSD SECTOR S 600.

Test [4] deals with JAK3 (Homo sapiens (Human), UniProt P52333). The experiment in a line: JAK3 enzyme activity assay (Caliper mobility shift). The format is biochemical. Particulars: ATP at Km level; read-out: JAK3 Inh. IC50. The source says:
The ability of candidate compounds to interact with JAK3 is quantitated by a mobility shift assay using an LC3000 instrument developed by Caliper Life Sciences. This assay is based on mobility shift electrophoresis, in which fluorescently labelled product and fluorescently labelled substrate peaks are separated and detected independently. JAK3 product/substrate separation is obtained using the following instrument settings: Pressure=−1.4 psi, Downstream voltage=−2550V and Upstream voltage=−800V. The inhibitory potency of candidate compounds of JAK3 is measured in 20 mM HEPES pH 7.5, 10 mM MgCl2, 0.01% BSA, 0.0005% Tween-20, and 2% DMSO in the presence of 2.5 nM JAK3 (Life Technologies Catalog #PV3855), […] (Anaspec Catalog #AS-64106) and […] (Km level) using a 384-well plate format. Background signal is defined in the absence of enzyme and uninhibited signal is defined in the presence of vehicle (2% DMSO) alone. Compounds were evaluated in an 11 point dose-response ranging from […] to 0.34 nM. IC50 values of compounds are determined using a 4 parameter logistical fit of emission ratio as a function of the concentration of compound.

Each structure is given as a SMILES string. pIC50: −log10 of the molar value. Like-named read-outs stand apart in the source and are kept apart here.

ITK, sequence (Q08881 whole entry): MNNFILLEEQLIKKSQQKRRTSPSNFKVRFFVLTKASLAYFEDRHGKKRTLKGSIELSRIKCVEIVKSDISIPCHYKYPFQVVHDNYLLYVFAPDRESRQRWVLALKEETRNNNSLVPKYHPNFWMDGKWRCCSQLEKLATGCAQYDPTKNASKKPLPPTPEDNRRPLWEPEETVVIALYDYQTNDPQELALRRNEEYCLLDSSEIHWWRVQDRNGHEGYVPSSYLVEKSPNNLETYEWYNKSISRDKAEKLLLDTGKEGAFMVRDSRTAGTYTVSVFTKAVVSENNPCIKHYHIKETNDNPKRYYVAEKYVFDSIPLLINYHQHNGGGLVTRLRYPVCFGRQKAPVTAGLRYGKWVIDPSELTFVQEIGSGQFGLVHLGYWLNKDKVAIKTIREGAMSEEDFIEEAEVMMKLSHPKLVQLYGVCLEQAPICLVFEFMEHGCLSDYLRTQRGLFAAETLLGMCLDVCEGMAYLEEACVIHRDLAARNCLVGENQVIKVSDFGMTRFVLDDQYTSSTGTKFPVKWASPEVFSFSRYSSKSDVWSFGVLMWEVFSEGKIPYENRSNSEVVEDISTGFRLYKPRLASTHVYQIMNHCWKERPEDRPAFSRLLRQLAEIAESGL
JAK3, sequence (P52333 781-1124): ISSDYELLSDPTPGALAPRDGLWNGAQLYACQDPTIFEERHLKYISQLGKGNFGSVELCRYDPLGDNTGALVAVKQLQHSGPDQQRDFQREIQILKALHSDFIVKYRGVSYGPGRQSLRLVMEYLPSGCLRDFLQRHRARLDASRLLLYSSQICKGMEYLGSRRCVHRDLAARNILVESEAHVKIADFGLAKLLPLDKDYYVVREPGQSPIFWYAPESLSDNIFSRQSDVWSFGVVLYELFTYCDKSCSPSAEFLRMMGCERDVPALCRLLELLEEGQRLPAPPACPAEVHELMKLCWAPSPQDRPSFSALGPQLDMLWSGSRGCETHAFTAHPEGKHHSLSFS

With `C=CC(=O)N1C[C@H](Nc2ncnc3[nH]cc(CC4CCC(CC)C4)c23)CC[C@@H]1C` (mixture of isomers) [Example 36, 1-((2S,5R)-5-((5-((3-ethylcyclopentyl)methyl)-7H-pyrrolo[2,3-d]pyrimidin-4-yl)amino)-2-methylpiperidin-1-yl)prop-2-en-1-one], the pIC50 (usually the IC50 on a negative log10 scale, so that one unit is a factor of ten) is 6.00 to 7.00 in test [1]; not below 8.00 in test [2]; 6.00 to 7.00 in test [3] (Homo sapiens, PBMC); not below 8.00 in test [4].

Take `C=CC(=O)N1C[C@H](Nc2ncnc3[nH]cc(C4CC4COC)c23)CC[C@@H]1C` (mixture of isomers) [Example 44, 1-((2S,5R)-5-((5-(2-(methoxymethyl)cyclopropyl)-7H-pyrrolo[2,3-d]pyrimidin-4-yl)amino)-2-methylpiperidin-1-yl)prop-2-en-1-one]: the pIC50 in test [1] is not below 7.00; in test [2], not below 8.00; in test [3] (Homo sapiens, PBMC), 6.00 to 7.00; in test [4], not below 8.00.

Consider `C=CC(=O)N1C[C@H](Nc2ncnc3[nH]cc(C4CC4(F)F)c23)CC[C@@H]1C` (mixture of isomers) [Example 47, 1-((2S,5R)-5-((5-(2,2-difluorocyclopropyl)-7H-pyrrolo[2,3-d]pyrimidin-4-yl)amino)-2-methylpiperidin-1-yl)prop-2-en-1-one], for which the pIC50 is not below 7.00 in test [1]; not below 8.00 in test [2]; not below 7.00 in test [3] (Homo sapiens, PBMC); not below 8.00 in test [4].

`C[C@H]1CC[C@@H](Nc2ncnc3[nH]cc(C4CC4(F)F)c23)CN1C(=O)/C=C/CN(C)C` (mixture of isomers) [Example 59, (E)-1-((2S,5R)-5-((5-(2,2-difluorocyclopropyl)-7H-pyrrolo[2,3-d]pyrimidin-4-yl)amino)-2-methylpiperidin-1-yl)-4-(dimethylamino)but-2-en-1-one]: the pIC50 in test [1] was not below 7.00; in test [2], not below 8.00; in test [4], 7.00 to 8.00.

With `C=CC(=O)N1CCC[C@@H](Nc2ncnc3[nH]cc(C(=O)[C@H]4CCOC4)c23)C1` (single isomer, unassigned) [Example 11], the pIC50 is less than 6.00 in test [1]; 7.00 to 8.00 in test [2]; less than 6.00 in test [3] (Homo sapiens, PBMC); less than 7.00 in test [4].

For the compound `C=CC(=O)N1CCC[C@@H](Nc2ncnc3[nH]cc(C(=O)[C@@H]4CCOC4)c23)C1` (single isomer, unassigned) [Example 12], the pIC50 is less than 6.00 in test [1]; not below 8.00 in test [2]; less than 6.00 in test [3] (Homo sapiens, PBMC); 7.00 to 8.00 in test [4].

`C=CC(=O)N1CCC[C@@H](Nc2ncnc3[nH]cc([C@H]4C[C@@H]4COC)c23)C1` (single isomer, unassigned) [Example 25]: the pIC50 in test [1] is 6.00 to 7.00; in test [2], not below 8.00; in test [3], less than 6.00; in test [4], 7.00 to 8.00.

In the case of `C=CC(=O)N1C[C@H](Nc2ncnc3[nH]cc([C@H]4C(C)(C)C4(F)F)c23)CC[C@@H]1C` (single isomer, unassigned) [Example 53], the pIC50 was 6.00 to 7.00 in test [1]; not below 8.00 in test [2]; not below 7.00 in test [3] (Homo sapiens, PBMC).

Take `C=CC(=O)N1CCC[C@@H](Nc2ncnc3[nH]cc([C@@]45CCC[C@@H]4C5(F)F)c23)C1` (single isomer, unassigned) [Example 79, 1-((R)-3-((5-((1R,5S)-6,6-difluorobicyclo[3.1.0]hexan-1-yl)-7H-pyrrolo[2,3-d]pyrimidin-4-yl)amino)piperidin-1-yl)prop-2-en-1-one]: in test [2], the pIC50 is not below 8.00.

With `C=CC(=O)N1CCC[C@@H](Nc2ncnc3[nH]cc([C@@]45CCC[C@@H]4C5(F)F)c23)C1` (single isomer, unassigned) [Example 79], the pIC50 in test [1] is 6.00 to 7.00; in test [3] (Homo sapiens, PBMC) it was 6.00 to 7.00; in test [4] it was not below 8.00.

With `C=CC(=O)N1C[C@H](Nc2ncnc3[nH]cc(C(=O)C(F)(F)F)c23)CC[C@@H]1C` [Example 33, 1-((2S,5R)-2-methyl-5-((5-(2,2,2-trifluoroacetyl)-7H-pyrrolo[2,3-d]pyrimidin-4-yl)amino)piperidin-1-yl)prop-2-en-1-one], the negative logarithm of the IC50 (pIC50) in test [1] was 6.00 to 7.00; in test [2], not below 8.00; in test [4] it was 7.00 to 8.00.

(Values after patent US12297203B2, “Pyrrolopyrimidine ITK inhibitors” (ACLARIS THERAPEUTICS, INC., priority 2018, dated 2025).)
